Test results published in PubChem BioAssay (NCI).
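Growth conditions: 96-well plates. Treatment: test compound, 48 hours, 5 concentrations. Analysis: linear interpolation between bracketing concentrations; unreached endpoints set to highest concentration. Definition used: TGI = concentration required for complete inhibition of growth.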

How the values were obtained:
Assay in all cases: DTP human tumour cell line panel, 48 h
MDA-MB-231 breast = tested on: MDA-MB-231 breast
NCI-H522 lung = tested on: NCI-H522 lung
PC-3 prostate = tested on: PC-3 prostate
SNB-75 CNS = tested on: SNB-75 CNS
SR leukemia = tested on: SR leukemia
MCF7 breast = tested on: MCF7 breast
HOP-62 NSCLC = tested on: HOP-62 NSCLC
MDA-N = tested on: MDA-N
SF-295 CNS = tested on: SF-295 CNS
EKVX NSCLC = tested on: EKVX NSCLC
SF-268 CNS = tested on: SF-268 CNS
HS 578T breast = tested on: HS 578T breast
M14 melanoma = tested on: M14 melanoma
COLO 205 colon = tested on: COLO 205 colon
OVCAR-4 ovarian = tested on: OVCAR-4 ovarian
HOP-92 NSCLC = tested on: HOP-92 NSCLC
KM12 colon = tested on: KM12 colon
DU-145 prostate = tested on: DU-145 prostate
SF-539 CNS = tested on: SF-539 CNS
SK-OV-3 ovarian = tested on: SK-OV-3 ovarian
MALME-3M melanoma = tested on: MALME-3M melanoma
ACHN renal = tested on: ACHN renal
MDA-MB-435 = tested on: MDA-MB-435
SK-MEL-5 melanoma = tested on: SK-MEL-5 melanoma
HCT-116 colon = tested on: HCT-116 colon
IGROV1 ovarian = tested on: IGROV1 ovarian
SK-MEL-28 melanoma = tested on: SK-MEL-28 melanoma
786-0 renal = tested on: 786-0 renal
UACC-62 melanoma = tested on: UACC-62 melanoma
HL-60(TB) leukemia = tested on: HL-60(TB) leukemia
TK-10 renal = tested on: TK-10 renal
SNB-19 CNS = tested on: SNB-19 CNS
T-47D breast = tested on: T-47D breast
K-562 leukemia = tested on: K-562 leukemia
OVCAR-5 ovarian = tested on: OVCAR-5 ovarian
CAKI-1 renal = tested on: CAKI-1 renal
NCI-H23 lung = tested on: NCI-H23 lung
LOX IMVI melanoma = tested on: LOX IMVI melanoma
CCRF-CEM leukemia = tested on: CCRF-CEM leukemia
OVCAR-3 ovarian = tested on: OVCAR-3 ovarian
NCI-H226 lung = tested on: NCI-H226 lung
SN12C renal = tested on: SN12C renal
HCC-2998 colon = tested on: HCC-2998 colon
OVCAR-8 ovarian = tested on: OVCAR-8 ovarian
UACC-257 melanoma = tested on: UACC-257 melanoma
NCI-H460 lung = tested on: NCI-H460 lung
RPMI-8226 leukemia = tested on: RPMI-8226 leukemia
SK-MEL-2 melanoma = tested on: SK-MEL-2 melanoma
MOLT-4 leukemia = tested on: MOLT-4 leukemia
RXF 393 renal = tested on: RXF 393 renal
NCI/ADR-RES ovarian = tested on: NCI/ADR-RES ovarian
HT29 colon = tested on: HT29 colon
UO-31 renal = tested on: UO-31 renal
A498 renal = tested on: A498 renal
A549 NSCLC = tested on: A549 NSCLC
U251 CNS = tested on: U251 CNS
HCT-15 colon = tested on: HCT-15 colon
SW-620 colon = tested on: SW-620 colon

O=C(C=P(c1ccccc1)(c1ccccc1)c1ccccc1)c1ccccc1-c1ccccc1C(=O)C=P(c1ccccc1)(c1ccccc1)c1ccccc1
TGI (MDA-MB-231 breast): 0.158 µM
TGI (NCI-H522 lung): 1.78 µM
TGI (PC-3 prostate): 1.23 µM
TGI (SNB-75 CNS): 0.115 µM
TGI (SR leukemia): 0.0667 µM
TGI (MCF7 breast): 0.0395 µM
TGI (HOP-62 NSCLC): 0.507 µM
TGI (MDA-N): 1.1 µM
TGI (SF-295 CNS): 0.0496 µM
TGI (EKVX NSCLC): 0.91 µM
TGI (SF-268 CNS): 1.61 µM
TGI (HS 578T breast): 0.317 µM
TGI (M14 melanoma): 1.42 µM
TGI (COLO 205 colon): 0.0222 µM
TGI (OVCAR-4 ovarian): 1.63 µM
TGI (HOP-92 NSCLC): 0.0544 µM
TGI (KM12 colon): 0.02 µM
TGI (DU-145 prostate): 1.28 µM
TGI (SF-539 CNS): 0.384 µM
TGI (SK-OV-3 ovarian): 0.366 µM
TGI (MALME-3M melanoma): < 0.0208 µM
TGI (ACHN renal): 1.12 µM
TGI (MDA-MB-435): 1.11 µM
TGI (SK-MEL-5 melanoma): 0.0263 µM
TGI (HCT-116 colon): 0.259 µM
TGI (IGROV1 ovarian): 1.36 µM
TGI (SK-MEL-28 melanoma): 2.03 µM
TGI (786-0 renal): 1.25 µM
TGI (UACC-62 melanoma): 1.33 µM
TGI (HL-60(TB) leukemia): < 0.0195 µM
TGI (TK-10 renal): 0.182 µM
TGI (SNB-19 CNS): 1.58 µM
TGI (T-47D breast): 2.08 µM
TGI (K-562 leukemia): 0.0905 µM
TGI (OVCAR-5 ovarian): 0.585 µM
TGI (CAKI-1 renal): 1.1 µM
TGI (NCI-H23 lung): 0.0899 µM
TGI (LOX IMVI melanoma): 0.0716 µM
TGI (CCRF-CEM leukemia): 0.843 µM
TGI (OVCAR-3 ovarian): < 0.012 µM

C1CCC(CC2CCC(NC3=NCCO3)CC2)CC1 (stereo not given)
TGI (MDA-MB-231 breast): 37.5 µM
TGI (NCI-H226 lung): 34.3 µM
TGI (NCI-H522 lung): 41.9 µM
TGI (SN12C renal): 42.5 µM
TGI (PC-3 prostate): 31.7 µM
TGI (SNB-75 CNS): 36.6 µM
TGI (SR leukemia): 52.6 µM
TGI (HCC-2998 colon): 37.1 µM
TGI (MCF7 breast): 32.1 µM
TGI (OVCAR-8 ovarian): 30.9 µM
TGI (HOP-62 NSCLC): 39.4 µM
TGI (UACC-257 melanoma): 30.1 µM
TGI (NCI-H460 lung): 37.1 µM
TGI (RPMI-8226 leukemia): 55.9 µM
TGI (MDA-N): 35.9 µM
TGI (SK-MEL-2 melanoma): 32.4 µM
TGI (MOLT-4 leukemia): 48.1 µM
TGI (RXF 393 renal): 36.6 µM
TGI (SF-295 CNS): 36 µM
TGI (EKVX NSCLC): 54.4 µM
TGI (SF-268 CNS): 62.1 µM
TGI (HS 578T breast): 40.6 µM
TGI (M14 melanoma): 33.8 µM
TGI (NCI/ADR-RES ovarian): 37.3 µM
TGI (COLO 205 colon): 28.2 µM
TGI (OVCAR-4 ovarian): 48.2 µM
TGI (KM12 colon): 32.7 µM
TGI (DU-145 prostate): 94.9 µM
TGI (SF-539 CNS): 31.1 µM
TGI (HT29 colon): 17.1 µM
TGI (SK-OV-3 ovarian): 38.4 µM
TGI (MALME-3M melanoma): 29.7 µM
TGI (ACHN renal): 35.5 µM
TGI (MDA-MB-435): 32.3 µM
TGI (SK-MEL-5 melanoma): 33.7 µM
TGI (HCT-116 colon): 30.6 µM
TGI (IGROV1 ovarian): 37.1 µM
TGI (SK-MEL-28 melanoma): 33.2 µM
TGI (UO-31 renal): 35.9 µM
TGI (786-0 renal): 29.2 µM
TGI (A498 renal): 53.3 µM
TGI (UACC-62 melanoma): 31.1 µM
TGI (HL-60(TB) leukemia): 34 µM
TGI (TK-10 renal): 28.6 µM
TGI (A549 NSCLC): > 100 µM
TGI (U251 CNS): 33.3 µM
TGI (HCT-15 colon): 30.1 µM
TGI (SNB-19 CNS): 34.3 µM
TGI (T-47D breast): 54.3 µM
TGI (K-562 leukemia): 32.9 µM
TGI (OVCAR-5 ovarian): 53.6 µM
TGI (SW-620 colon): 41.7 µM
TGI (CAKI-1 renal): 50.7 µM
TGI (NCI-H23 lung): 36.5 µM
TGI (LOX IMVI melanoma): 30.9 µM
TGI (CCRF-CEM leukemia): 61.9 µM
TGI (OVCAR-3 ovarian): 30.6 µM

O=C(OC[C@H]1C[C@H]2C(=O)OCCC[C@H]2O1)c1ccccc1
TGI (MDA-MB-231 breast): > 100 µM
TGI (NCI-H226 lung): > 100 µM
TGI (NCI-H522 lung): > 100 µM
TGI (SN12C renal): > 100 µM
TGI (PC-3 prostate): > 100 µM
TGI (SNB-75 CNS): > 100 µM
TGI (SR leukemia): > 100 µM
TGI (MCF7 breast): > 100 µM
TGI (OVCAR-8 ovarian): > 100 µM
TGI (HOP-62 NSCLC): > 100 µM
TGI (UACC-257 melanoma): > 100 µM
TGI (NCI-H460 lung): > 100 µM
TGI (RPMI-8226 leukemia): > 100 µM
TGI (MDA-N): > 100 µM
TGI (SK-MEL-2 melanoma): > 100 µM
TGI (MOLT-4 leukemia): > 100 µM
TGI (SF-295 CNS): > 100 µM
TGI (EKVX NSCLC): > 100 µM
TGI (SF-268 CNS): > 100 µM
TGI (HS 578T breast): > 100 µM
TGI (M14 melanoma): > 100 µM
TGI (NCI/ADR-RES ovarian): > 100 µM
TGI (COLO 205 colon): > 100 µM
TGI (OVCAR-4 ovarian): > 100 µM
TGI (HOP-92 NSCLC): > 100 µM
TGI (KM12 colon): > 100 µM
TGI (DU-145 prostate): > 100 µM
TGI (HT29 colon): > 100 µM
TGI (SK-OV-3 ovarian): > 100 µM
TGI (ACHN renal): > 100 µM
TGI (MDA-MB-435): > 100 µM
TGI (SK-MEL-5 melanoma): > 100 µM
TGI (HCT-116 colon): > 100 µM
TGI (IGROV1 ovarian): > 100 µM
TGI (SK-MEL-28 melanoma): > 100 µM
TGI (UO-31 renal): > 100 µM
TGI (786-0 renal): > 100 µM
TGI (A498 renal): > 100 µM
TGI (UACC-62 melanoma): > 100 µM
TGI (HL-60(TB) leukemia): > 100 µM
TGI (TK-10 renal): > 100 µM
TGI (A549 NSCLC): > 100 µM
TGI (U251 CNS): > 100 µM
TGI (HCT-15 colon): > 100 µM
TGI (SNB-19 CNS): > 100 µM
TGI (T-47D breast): > 100 µM
TGI (K-562 leukemia): > 100 µM
TGI (OVCAR-5 ovarian): > 100 µM
TGI (SW-620 colon): > 100 µM
TGI (CAKI-1 renal): > 100 µM
TGI (NCI-H23 lung): > 100 µM
TGI (CCRF-CEM leukemia): > 100 µM
TGI (OVCAR-3 ovarian): > 100 µM
